“And” between values parts separate entries of the source, which are not always exact repeats. Equal entries are not always repeated.
Experiments:
[1] = test system: TPA-stimulated epidermal DNA synthesis in mouse epidermis; experiment: TPA-induced epidermal DNA synthesis in mouse epidermis, oral fluasterone; format: in vivo, CD-1 mice; details: for cpm/μg DNA / μg DNA: Table 4, 20 h, group mean
Description: In dose-response experiments the anti-hyperplastic efficacy of fluasterone in TPA-treated mouse epidermis to determine bioavailability following different routes of administration was measured. Mice were treated with a single dose of fluasterone (either orally, subcutaneously, or transdermally) followed by a single application of TPA to the shaved back one hour latter. In case of transdermal administration, fluasterone is applied in a topical formulation to the shaved abdomen to allow for systemic absorption to the back of the animal. Twenty hours after TPA application, the mice are injected with 60 μCi of [3H] thymidine, sacrificed 20 minutes later, and a 2×2 cm2 of skin from the shaved back is excised and processed for the determination of the amount of [3H] thymidine incorporated per unit of epidermal DNA. (Hennings et. al., Cancer Res. 28:543-552, 1968).
Fluasterone suspensions were prepared using sesame oil as vehicle. Micronized fluasterone was obtained from Pharmaceutics International, Inc. Five suspensions were prepared—100 mg/kg (13 mg/mL), 200 mg/kg (26.5 mg/mL), 400 mg/kg (52.4 mg/mL), 800 mg/kg (105.5 mg/mL), and 1200 mg/kg (158.3 mg/mL). The fluasterone for each suspension was weighed, placed into a plastic vial, and the required volume of sesame oil was added to the vial. The fluasterone was suspended in the sesame oil with the use of a Tekmar Tissumizer. Magnetic stirrer bars were added to the various suspensions which were stirred on a magnetic stirrer prior to treatment. Control and TPA groups received sesame oil alone.
Female CD-1 mice were obtained from Charles River Laboratories, Wilmington, Mass. at 35-37 days of age.
The mice were housed three per cage in plastic shoebox cages on Alphacel bedding with 12 hours of alternating light and dark in the CAF Animal Facility. The mice had ad libitum access to Purina 5.015 chow and acidified tap water (pH≦2.6). The mice were shaved, weighed and distributed into groups of three. • Control The mice were treated orally with 0.2 mL of sesame oil. One hour after treatment with sesame oil, the mice were treated topically with 0.2 mL of acetone. • TPA The mice were treated orally with 0.2 mL of sesame oil. […] One hour after treatment with fluasterone, the mice were treated topically with 2 μg of TPA in 0.2 mL of acetone.
The mice were sacrificed 20 hours after treatment by an overdose of CO2. Twenty minutes prior to sacrifice, the mice were injected with 60 μCi of [^3H]thymidine (Amersham). The mice were treated with a depilatory to remove any residual hair. A 2×2 cm^2 piece of skin was excised, placed in ice water for 30 seconds, then in 55° C. water for 30 seconds, then in ice water again for 30 seconds. The epidermis was s raped off using a scalpel and the scrapings were placed into ice cold 0.4N TCA. The scrapings were homogenized using a Tekmar Tissumizer (80% power for 30 seconds). The homogenates were centrifuged for 20 minutes at 3,000×g. The precipitates were washed 3× with 0.2N TCA. The TCA was removed and the precipitates were stored at −20° C. overnight. The next day, the precipitates were washed 2× with absolute ethanol. The DNA in each sample was hydrolyzed with 0.5N TCA for 30 minutes at 90°. The tubes were centrifuged for 20 minutes at 3000×g. A 0.2 mL aliquot of each hydrolysate was counted in a LKB Rackbeta scintillation counter using Scintiverse II BD as the counting medium. DNA content was determined by the Burton diphenylamine assay.
102.7 mg of Micronized fluasterone I was weighed using a Mettler AE-50 balance, transferred to a glass scintillation vial, and homogenized in 6.0 mL of carboxymethylcellulose-Tween 80 using a Tekmar Tissumizer (200 mg/kg micronized I suspension, 200 MI). 88.4 mg of micronized fluasterone II was then weighed, transferred to a glass scintillation vial, and homogenized in 5.2 mL of CMC-Tween using a Tekmar Tissumizer (200 mg/kg micronized II suspension, 200 MII).

[2] = Oral single dose PK experiment in mice; format: in vivo; details: 200 mg/kg oral single dose
Description: An oral single dose PK experiment in mice following administration of 200 mg/kg fluasterone was performed. The calculated AUC0-24 was 2,242 (ngXh/mL). A PK study was also performed in 12 human volunteers as part of a phase I fluasterone study. The volunteers received either 800 mg or 1600 mg fluasterone orally as a daily dose. The AUC0-24/mg dose was calculated.

[3] = test system: fasting plasma triglyceride levels; experiment: Phase I/II trial in hypertriglyceridemic patients; format: in vivo, human; details: about 1200 mg oral
Description: The lowest effective oral dose of fluasterone which lowers fasting plasma triglycerides in diabetic mice is about 200 mg/kg, which translates into an oral human dose of about 1200 mg.

[4] = test system: TPA-stimulated epidermal DNA synthesis in mouse epidermis; experiment: TPA-induced epidermal DNA synthesis in mouse epidermis, transdermal fluasterone; format: in vivo, CD-1 mice; details: 20 h; for μg DNA/0.2 mL / cpm / corrected cpm / μg DNA/0.2: single mice; for cpm/μg DNA: single mice and group mean
[5] = 100 mg/kg p.o. micronized in sesame oil 1 h before 2 μg TPA
[6] = 200 mg/kg p.o. micronized in sesame oil 1 h before 2 μg TPA
[7] = 400 mg/kg p.o. micronized in sesame oil 1 h before 2 μg TPA
[8] = 800 mg/kg p.o. micronized in sesame oil 1 h before 2 μg TPA
[9] = 1200 mg/kg p.o. micronized in sesame oil 1 h before 2 μg TPA
[10] = Cremophor EL solution, 1.9 mg/kg transdermal (abdomen) 1 h before 2 μg TPA (back), 1.9 mg/kg
[11] = Cremophor EL solution, 5 mg/kg transdermal (abdomen) 1 h before 2 μg TPA (back), 5 mg/kg
[12] = Cremophor EL:ethanol (50:50 v/v) solution, 1.9 mg/kg transdermal (abdomen) 1 h before 2 μg TPA (back), 1.9 mg/kg
[13] = Cremophor EL:ethanol (50:50 v/v) solution, 2.5 mg/kg transdermal (abdomen) 1 h before 2 μg TPA (back), 2.5 mg/kg
[14] = Cremophor EL:ethanol (50:50 v/v) solution, 5 mg/kg transdermal (abdomen) 1 h before 2 μg TPA (back), 5 mg/kg
[15] = Tween 80:ethanol (50:50 v/v) solution, 1.9 mg/kg transdermal (abdomen) 1 h before 2 μg TPA (back), 1.9 mg/kg

SMILES: C[C@]12CCCCC1=CC[C@@H]1[C@@H]2CC[C@]2(C)C(=O)[C@H](F)C[C@@H]12 [Fluasterone, 16α-fluoro-5-androsten-17-one]
- cpm/μg DNA [1, 5]: 539.8 ± 75.9 cpm/μg DNA
- μg DNA [1, 5]: 15.5 ± 3.0 µg
- cpm/μg DNA [1, 6]: 185.0 ± 38.2 cpm/μg DNA
- μg DNA [1, 6]: 6.0 ± 1.9 µg
- cpm/μg DNA [1, 7]: 208.8 ± 144.2 cpm/μg DNA
- μg DNA [1, 7]: 6.6 ± 2.6 µg
- cpm/μg DNA [1, 8]: 634.3 ± 151.6 cpm/μg DNA
- μg DNA [1, 8]: 6.2 ± 1.0 µg
- cpm/μg DNA [1, 9]: 850.0 ± 256.0 cpm/μg DNA
- μg DNA [1, 9]: 6.3 ± 1.5 µg
- lowest effective oral dose which abolishes TPA-stimulated epidermal hyperplasia ([3H]thymidine incorporation and epidermal DNA content) ([1]; mouse skin, single oral dose): 200 mg/kg
- AUC0-24 [2]: 2,242 ngXh/mL
- effect on fasting plasma triglyceride levels [3]: significantly lowered
- μg DNA/0.2 mL ([4]; Cremophor EL solution, 1.25 mg/kg transdermal (abdomen) 1 h before 2 μg TPA (back), 1.25 mg/kg): 28.1 μg DNA/0.2 mL and 14.9 μg DNA/0.2 mL
- cpm/μg DNA [4, 10]: 161.0 cpm/μg DNA and 270.3 cpm/μg DNA and 215.7 ± 77.3 cpm/μg DNA
- μg DNA/0.2 mL [4, 10]: 15.4 μg DNA/0.2 mL and 20.1 μg DNA/0.2 mL
- μg DNA/0.2 mL ([4]; Cremophor EL solution, 2.5 mg/kg transdermal (abdomen) 1 h before 2 μg TPA (back), 2.5 mg/kg): 8.6 μg DNA/0.2 mL and 10.1 μg DNA/0.2 mL
- cpm [4, 11]: 1,015 cpm and 1,686 cpm
- μg DNA/0.2 mL [4, 11]: 8.4 μg DNA/0.2 mL and 11.2 μg DNA/0.2 mL
- cpm/μg DNA [4, 12]: 207.8 cpm/μg DNA and 160.4 cpm/μg DNA
- corrected cpm [4, 12]: 5,965 cpm and 4,025 cpm
- cpm [4, 12]: 5,990 cpm and 4,050 cpm
- μg DNA/0.2 [4, 12]: 28.7 μg DNA/0.2 and 25.1 μg DNA/0.2
- cpm/μg DNA [4, 13]: 423.2 cpm/μg DNA and 410.7 cpm/μg DNA and 462.8 cpm/μg DNA
- corrected cpm [4, 13]: 7,068 cpm and 6,243 cpm and 6,341 cpm
- cpm [4, 13]: 7,093 cpm and 6,268 cpm and 6,366 cpm
- μg DNA/0.2 [4, 13]: 16.7 μg DNA/0.2 and 15.2 μg DNA/0.2 and 13.7 μg DNA/0.2
- cpm/μg DNA [4, 14]: 125.1 cpm/μg DNA and 222.9 cpm/μg DNA and 206.4 cpm/μg DNA
- μg DNA/0.2 [4, 14]: 15.0 μg DNA/0.2 and 14.0 μg DNA/0.2 and 13.3 μg DNA/0.2
- cpm/μg DNA [4, 15]: 216.3 cpm/μg DNA and 189.8 cpm/μg DNA
- corrected cpm [4, 15]: 3,114 cpm and 3,150 cpm
